Activity calls are given as the source filed them. The rule behind the calls is not given here.
What was measured:
[1] = tested on: L6; experiment: Inhibition of mitochondrial respiratory complex 1 in differentiated Sprague-Dawley rat L6 myotube cells assessed as mitochondrial membrane potential at 5 uM after 40 to 60 mins by JC-1 staining based fluorescence assay (reference value: 100 +/- 1.6%); format: cell-based; set-up: scale not given: the % may be the effect or the level left
[2] = Cytotoxicity against Sprague-Dawley rat L6 cells assessed as cell viability at 10 uM after 12 hrs by SRB assay (reference value: 100 +/- 1.8%); format: cell-based; details: read-out: Activity
[3] = tested on: L6; experiment: Inhibition of mitochondrial respiratory complex 1 in differentiated Sprague-Dawley rat L6 myotube cells assessed as mitochondrial membrane potential at 20 uM after 40 to 60 mins by JC-1 staining based fluorescence assay (reference value: 100 +/- 1.6%); format: cell-based; set-up: scale not given: the % may be the effect or the level left
[4] = species: Rattus norvegicus; experiment: Activation of AMPK in Sprague-Dawley rat primary hepatocytes assessed as inhibition of gluconeogenesis by measuring glucose production at 5 uM after 6 hrs by colorimetric assay (reference value: 100 +/- 3.5%); set-up: scale not given: the % may be the effect or the level left
[5] = tested on: L6; experiment: Activation of AMPK in Sprague-Dawley rat L6 myotube cells assessed as increase in acetyl-CoA carboxylase phosphorylation at Ser79 residues at 10 uM after 1 hr by Western blot analysis; format: cell-based
[6] = tested on: L6; experiment: Upregulation of AMPKalpha phosphorylation at Thr172 residues in Sprague-Dawley rat L6 myotube cells at 10 uM after 1 hr by Western blot analysis; format: cell-based
[7] = tested on: L6; experiment: Activation of AMPK in differentiated Sprague-Dawley rat L6 myotube cells assessed as glucose consumption at 10 uM after 12 hrs by colorimetric assay (reference value: 100 +/- 1.8%); format: cell-based
[8] = tested on: L6; experiment: Inhibition of mitochondrial respiratory complex 1 in differentiated Sprague-Dawley rat L6 myotube cells assessed as mitochondrial membrane potential at 10 uM after 40 to 60 mins by JC-1 staining based fluorescence assay (reference value: 100 +/- 1.6%); format: cell-based; set-up: scale not given: the % may be the effect or the level left
[9] = tested on: L6; experiment: Activation of AMPK in differentiated Sprague-Dawley rat L6 myotube cells assessed as increase in glucose consumption at 5 to 20 uM after 12 hrs by colorimetric assay relative to control; format: cell-based
[10] = tested on: L6; experiment: Activation of AMPK in differentiated Sprague-Dawley rat L6 myotube cells assessed as glucose consumption at 20 uM after 12 hrs by colorimetric assay (reference value: 100 +/- 1.8%); format: cell-based
[11] = Cytotoxicity against Sprague-Dawley rat L6 cells assessed as cell viability at 5 uM after 12 hrs by SRB assay (reference value: 100 +/- 1.8%); format: cell-based; details: read-out: Activity
[12] = Cytotoxicity against Sprague-Dawley rat L6 cells assessed as cell viability at 20 uM after 12 hrs by SRB assay (reference value: 100 +/- 1.8%); format: cell-based; details: read-out: Activity
[13] = tested on: L6; experiment: Activation of AMPK in Sprague-Dawley rat L6 myotube cells assessed as increase in acetyl-CoA carboxylase phosphorylation at Ser79 residues at 5 to 20 uM after 1 hr by Western blot analysis; format: cell-based
[14] = tested on: L6; experiment: Activation of AMPK in differentiated Sprague-Dawley rat L6 myotube cells assessed as glucose consumption at 5 uM after 12 hrs by colorimetric assay (reference value: 100 +/- 1.8%); format: cell-based
[15] = tested on: L6; experiment: Activation of AMPK in differentiated Sprague-Dawley rat L6 myotube cells assessed as increase in glucose consumption at 5 to 20 uM after 12 hrs by colorimetric assay relative to berberine; format: cell-based
[16] = species: Rattus norvegicus; experiment: Activation of AMPK in Sprague-Dawley rat primary hepatocytes assessed as inhibition of gluconeogenesis by measuring glucose production after 6 hrs by colorimetric assay
[17] = tested on: L6; experiment: Upregulation of AMPKalpha phosphorylation at Thr172 residues in Sprague-Dawley rat L6 myotube cells at 5 to 20 uM after 1 hr by Western blot analysis; format: cell-based
[18] = species: Rattus norvegicus; experiment: Activation of AMPK in Sprague-Dawley rat primary hepatocytes assessed as inhibition of gluconeogenesis by measuring glucose production at 10 uM after 6 hrs by colorimetric assay (reference value: 100 +/- 3.5%); set-up: scale not given: the % may be the effect or the level left
[19] = species: Rattus norvegicus; experiment: Activation of AMPK in Sprague-Dawley rat primary hepatocytes assessed as inhibition of gluconeogenesis by measuring glucose production at 20 uM after 6 hrs by colorimetric assay (reference value: 100 +/- 3.5%); set-up: scale not given: the % may be the effect or the level left
[20] = tested on: L6; experiment: Activation of AMPK in differentiated Sprague-Dawley rat L6 myotube cells assessed as increase in glucose consumption at 10 uM after 12 hrs by colorimetric assay relative to control; format: cell-based

Row | Structure (SMILES) | Activity [4] | inhibition [16] | Activity [18] | Activity [19] | Activity [1] | viability at 12 h, 10 µM [2] | Activity [3] | Activity [5] | Activity [6] | Activity [7] | Activity [8] | fold change (FC) [9] | Activity [10] | viability at 12 h, 5 µM [11] | viability at 12 h, 20 µM [12] | Activity [13] | Activity [14] | fold change (FC) [15] | Activity [17] | fold change (FC) [20]
1 | COc1ccc2cc3[n+](cc2c1OC)CCc1cc2c(cc1-3)OCO2 [BERBERINE CHLORIDE] | 57.6% |  |  |  | 91.5% | 100% | 84.5% | Active | Active | 228% | 85.8% |  |  |  |  |  |  |  |  | 
2 | COc1ccc(OC)c2c1CC1c3cc(C(C)c4ccccc4)sc3CCN1C2 (stereo not given) | 43.4% | Dose-dependent effect | 39.5% | 36% | 86.6% | 102% | 66% |  |  | 264% | 76.6% | 2.3 to 2.9 | 246% | 101% | 101% | Active | 244% | 2.3 | Active | 
3 | c1cc2c(s1)CC1c3cc4c(cc3CCN1C2)OCO4 (stereo not given) |  |  |  |  |  | 99.7% |  |  |  | 134% |  |  | 133% | 98.6% | 102% |  | 132% |  |  | 1.3
4 | CCc1cc2c(s1)CC1c3cc4c(cc3CCN1C2)OCO4 (stereo not given) |  |  |  |  |  | 102% |  |  |  | 219% |  |  | 227% | 99.5% | 102% |  | 212% |  |  | 2.2
5 | C=CCOc1ccc(Cc2cc3c(s2)CCN2Cc4c(OC)ccc(OC)c4CC32)cc1 (stereo not given) | 58.7% | Dose-dependent effect | 49.6% | 49% | 83.7% | 102% | 54% |  |  | 249% | 72.8% | 2.1 to 2.7 | 265% | 99.4% | 98.7% | Active | 213% | 2.3 | Active | 
6 | COc1ccc(OC)c2c1CC1c3cc(Cc4ccc(F)cc4)sc3CCN1C2 (stereo not given) | 96.7% | Dose-dependent effect | 83.4% | 60.6% | 82.8% | 98.2% | 62.9% |  |  | 238% | 76% | 2.3 to 2.9 | 235% | 98.8% | 100% | Active | 216% | 2.3 | Active | 
7 | c1ccc(Cc2cc3c(s2)CC2c4cc5c(cc4CCN2C3)OCO5)cc1 (stereo not given) | 59.5% | Dose-dependent effect | 48.2% | 40.9% | 98.2% | 101% | 79.7% |  |  | 242% | 90.7% |  | 264% | 102% | 101% | Active | 194% |  | Active | 2.4

More lines, main results first:

Row | Activity [4] | inhibition [16] | Activity [18] | Activity [19] | Structure (SMILES) | Activity [1] | viability at 12 h, 10 µM [2] | Activity [3] | Activity [5] | Activity [6] | Activity [7] | Activity [8] | fold change (FC) [9] | Activity [10] | viability at 12 h, 5 µM [11] | viability at 12 h, 20 µM [12] | Activity [13] | Activity [14] | fold change (FC) [15] | Activity [17] | fold change (FC) [20]
8 | 73.3% | Dose-dependent effect | 65% | 55.7% | COc1ccc(OC)c2c1CC1c3cc(Cc4ccc(C)cc4)sc3CCN1C2 (stereo not given) | 67.7% | 106% | 49% |  |  | 230% | 57.7% | 2.3 to 2.9 | 238% | 100% | 107% | Active | 222% | 2.3 | Active | 
9 | 51.6% | Dose-dependent effect | 46.7% | 43% | COc1ccc(OC)c2c1CC1c3cc(Cc4ccc(N5CCCCC5)cc4)sc3CCN1C2 (stereo not given) | 82.8% | 101% | 58.5% |  |  | 252% | 71.7% | 2.5 | 270% | 103% | 102% | Active | 214% |  | Active | 
10 | 73.2% | Dose-dependent effect | 58.8% | 38.1% | COc1cccc(Cc2cc3c(s2)CCN2Cc4c(OC)ccc(OC)c4CC32)c1 (stereo not given) | 76.3% | 94.9% | 59.2% |  |  | 242% | 72.8% | 2.1 to 2.7 | 243% | 100% | 100% | Active | 245% | 2.3 | Active | 
11 | 58.3% | Dose-dependent effect | 55.6% | 53.7% | CCCCc1cc2c(s1)CC1c3cc4c(cc3CCN1C2)OCO4 (stereo not given) | 75.1% | 98.8% | 57.5% |  |  | 287% | 68.9% |  | 285% | 102% | 97.7% | Active | 265% |  | Active | 2.9
12 | 82.7% | Dose-dependent effect | 65.6% | 47.5% | COc1ccc(OC)c2c1CC1c3cc(Cc4cccc(C)c4)sc3CCN1C2 (stereo not given) | 84.5% | 99% | 67.6% |  |  | 266% | 77.8% |  | 251% | 99.6% | 101% | Active | 237% |  | Active | 

From ChEMBL document CHEMBL4219147, “Design, synthesis, and structure-activity relationships of novel 4,7,12,12a-tetrahydro-5H-thieno[3',2':3,4]pyrido[1,2-b]isoquinoline and 5,8,12,12a-tetrahydro-6H-thieno[2',3':4,5]pyrido[2,1-a]isoquinoline derivatives as cellular activators of adenosine 5'-monophosphate-activated protein kinase …” (Bioorg Med Chem, 2018)
